Experimental data: publication PMC5585294, “A potent series targeting the malarial cGMP-dependent protein kinase clears infection and blocks transmission” (Nature Communications, 2017)
Read-outs that look alike come from different tables or passages of the source.

Tests used:
[1] = Plasma levels in satellite groups of mice, P. berghei experiment; format: in vivo, mouse; conditions: BALB/c, mouse, in vivo, po, 25 mg/kg
Excerpt: (§1) Supplementary Figure 4. Plasma concentrations over time in rodent malaria models. […] Error bars show the standard deviation. (1 picture or pasted object on this page, not shown here)

[2] = test system: P. falciparum (NF54) gametocytes; assay: Standard membrane feeding assay (SMFA), gametocytes fed to Anopheles stephensi; format: cell-based, Plasmodium falciparum; conditions: Plasmodium falciparum, NF54; gametocytes pre-incubated 24 h, oocysts counted day 7 post-feed; read-out: IC50 for reduction of the intensity of infection (oocysts)
Method: Mature P. falciparum (NF54) gametocytes (14 day culture, 0.3–0.5% gametocytes, 2% haematocrit) were obtained from an automated tipper system and incubated with compound for 24 h as previously described. Anopheles stephensi (Sind-Kasur Nijmegen strain[39] were reared at 30 °C and 70–80% humidity, while exposed to a 12/12 h day/night cycle. On the day of feeding, the gametocyte culture was adjusted to 50% hematocrit with human red blood cells and human serum and fed to 3–5 day old mosquitoes using a glass membrane mini-feeder system containing 0.35 ml of the P. falciparum culture/compound mix[40]. Unfed and partially fed mosquitoes were removed after feeding and blood fed females were maintained at 26 °C and 70–80% humidity. Up to 20 surviving mosquitoes were collected on day 7 post-infection and oocysts were visualized using a 1% merchurochrome solution and quantified by microscopy. IC50 values were determined by logistic regression using Maximum Likelihood Estimation to find best fit[41].

[3] = Parallel artificial membrane permeability assay (PAMPA); format: in vitro ADME
Excerpt: Compound mlm hlm mLogD PAMPA HepG2
name (%rem) (%rem) (nm/s) (IC50 µM)
Supplementary Table 2. Compound Properties. MLM, HLM, mLogD and PAMPA . mlm

in vivo [4] = conditions: BALB/c, mouse, po
Excerpt: as §1

in vivo [5] = conditions: NOD-scid IL-2Rγc-null, mouse, po
Method: The blood samples were immediately lysed by mixing with 25 μl of distilled water, frozen on dry ice and stored at −80 °C until analysis. The compounds were extracted from 10 μl of each lysate by liquid–liquid extraction in the MultiScreen Solvinert 0.45 μm Hydrophobic PTFE 96-well plate system (Millipore) and stored frozen at −80 °C until analysis by LC/MS/MS in API4000 (AB Sciex, Framingham, MA). The compound concentration vs. time data were analyzed by non-compartmental analysis using Phoenix® Version 6.3 (Pharsight Corporation, Mountain View, CA, USA). Additional statistical analysis was performed with GraphPad Prism® Version 6.02 (GraphPad Software Inc, San Diego CA, USA).

P. falciparum 3D7 = assay: Hypoxanthine incorporation growth inhibition assay, asexual blood stage, wild-type 3D7; format: cell-based, Plasmodium falciparum; conditions: 3D7 asexual blood stage growth, 72 h, +/- s.e.m.; for EC50: read-out: EC50 WT
Method: Hypoxanthine incorporation assays[36] were performed on P. falciparum asexual blood stage parasites (wild-type 3D7 or T618Q gatekeeper mutant) to determine EC50 values for test compounds. Mixed staged parasites (primarily rings) were added to 96 well plates containing compounds at concentrations of 50 μM–0.3 nM. […] Assays were carried out in triplicate at least twice.

P. chabaudi (AS) = assay: Synchronous P. chabaudi AS model in BALB/c mice; format: in vivo, Plasmodium chabaudi; conditions: 4 days
Method: Similar experiments were performed using P. chabaudi AS (from David Walliker, University of Edinburgh) with the following modifications. To allow dosing to be carried out more conveniently during the day, reversal of the light/dark exposure of mice for 2 weeks prior to the experiment was used to switch schizogony from midnight to noon each day. Mice were dosed at different time points in an attempt to have maximal coverage at the point of schizogony. All animal work protocols carried out at LSHTM were approved and licensed by the United Kingdom Home Office as governed by law under the Animals (Scientific Procedures) Act of 1986, in strict accordance with the Code of Practice Part 1 for the housing and care of animals (21 March 2005), available at http://www.homeoffice.gov.uk/science-research/animal-research/

[6] = Stability in mouse liver microsomes; conditions: mouse, microsomes, 0.5 h
Method: (§2) Compound mlm hlm mLogD PAMPA HepG2 name (%rem) (%rem) (nm/s) (IC50 µM)
(§3) Supplementary Table 2. Compound Properties. MLM, HLM, mLogD and PAMPA . mlm (%rem): % of compound remaining after 30 minutes’ incubation with mouse liver microsomes; hlm (%rem): % of compound remaining after 40 minutes’ incubation with human liver microsomes; mLogD: measured LogD at pH 7.4; PAMPA: parallel artificial membrane permeability assay; HepG2: Cytotoxicity assay using HepG2 cells; n.t.: not tested.

[7] = test system: P. falciparum gatekeeper mutant (T618Q) stage V gametocytes; assay: Gametogenesis (rounding up) assay, T618Q stage V gametocytes; format: cell-based, Plasmodium falciparum; conditions: 30 µM xanthurenic acid; 2 µM ML1, 1 µM ML10
[8] = Cytotoxicity assay (ATP depletion), A549; format: cell-based; conditions: human, A549 lung carcinoma cells, 0.001–10 µM, n = 6
Method: (§4) A549 (lung carcinoma; ATCC, Ref. ATCC® CCL-185™), plated at 7.5×10^3 cells/well; HT-29 (colorectal adenocarcinoma; ATCC, Ref. ATCC® HTB-38™), plated at 7.5×10^3 cells/well; and MCF7 (breast adenocarcinoma; ATCC, Ref. ATCC® HTB-22™), plated at 9× 10^3 cells/well, were placed into clear bottom, opaque 96 well plates in cell line-specific medium and allowed to attach overnight. […] FCS, 1× GlutaMAX™ Supplement (Life Technologies, 35050061) and 50 units/ml penicillin and 50 µg/ml streptomycin for 48 h. Six independent assays were performed for each line and were carried out by CXR Biosciences Ltd. End point for cytotoxicity assessment was carried out using an ATP depletion kit (CellTiter-Glo Luminescent Cell Viability Assay for ATP quantitation (Promega, Cat # G7572)). Results expressed relative to the 0.1% DMSO control. Unpaired Student’s t-tests were performed using GraphPad Prism software (7.0).

[9] = Stability in human liver microsomes; conditions: human, microsomes, 40 min
Method: as §2, §3

[10] = Cytotoxicity assay (ATP depletion), MCF7; format: cell-based; conditions: human, MCF7 breast adenocarcinoma cells, 0.001–10 µM, n = 6
Method: as §4

SMILES: Cc1cn2c(-c3ccnc(NCC4CC4)n3)c(-c3ccc(F)c(NS(C)(=O)=O)c3)nc2cc1CN(C)C [ML10]
- half-life [1]: 0.8 h
- IC50 [2]: 41.3 nM
- Papp [3]: 8.16 ×10⁻⁶ cm/s
- half-life (in vivo [4]; 25 mg/kg): 0.8 h
- concentration at 30 min (in vivo [4]; 50 mg/kg): 10.4 µM
- concentration at 60 min (in vivo [4]; 50 mg/kg): ~8.4 µM
- concentration at 4 h (in vivo [4]; 50 mg/kg): < 0.084 µM
- half-life (in vivo [4]; 50 mg/kg): 1.1 h
- half-life (in vivo [5]; 50 mg/kg): 8.7 h
- half-life (in vivo [5]; 100 mg/kg): 17 h
- EC50 (P. falciparum 3D7): 2.1 nM
- EC50 (P. falciparum 3D7; Plasmodium falciparum, 3D7, 72 h): ~2 nM
- EC90 (P. falciparum 3D7; Plasmodium falciparum): 4.5 nM
- reduction in blood stage parasitaemia (P. chabaudi (AS); single daily oral dose 50 mg/kg just prior to schizogony): 60.9%
- reduction in blood stage parasitaemia (mean) (P. chabaudi (AS); twice daily oral dose 50 mg/kg (3 h apart)): 97.8%
- mlm (%rem) [6]: 59%
- rounding up of T618Q gametocytes [7]: insensitive
- EC50 at 48 h [8]: > 10000 nM
- hlm (%rem) [9]: 61%
- EC50 at 48 h [10]: > 10000 nM
